Two molecules from paper PMC12436592 (Nature Communications, 2025) can be followed below.

This test has as its target T1, rP2X7R (Rattus norvegicus, UniProt Q64663).
T1 sequence (Q64663 1-595): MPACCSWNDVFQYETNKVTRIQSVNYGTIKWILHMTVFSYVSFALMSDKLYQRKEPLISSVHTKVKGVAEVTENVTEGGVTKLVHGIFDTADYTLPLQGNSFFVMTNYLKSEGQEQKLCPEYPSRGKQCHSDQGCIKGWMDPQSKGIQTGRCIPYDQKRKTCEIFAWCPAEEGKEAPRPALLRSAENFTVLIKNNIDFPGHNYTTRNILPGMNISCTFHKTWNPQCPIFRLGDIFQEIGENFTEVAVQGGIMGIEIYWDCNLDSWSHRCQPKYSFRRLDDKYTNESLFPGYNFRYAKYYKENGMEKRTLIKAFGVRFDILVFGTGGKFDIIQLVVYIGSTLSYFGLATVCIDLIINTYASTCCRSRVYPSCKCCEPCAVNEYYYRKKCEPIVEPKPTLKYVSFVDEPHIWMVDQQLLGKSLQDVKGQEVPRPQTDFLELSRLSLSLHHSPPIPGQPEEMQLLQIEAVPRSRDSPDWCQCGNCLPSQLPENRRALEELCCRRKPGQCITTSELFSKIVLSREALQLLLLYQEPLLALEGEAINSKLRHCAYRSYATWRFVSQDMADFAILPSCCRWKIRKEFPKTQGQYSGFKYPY
As to the kind of experiment: Calcium influx assay, 1321N1 astrocytoma cells, BzATP EC80. Details: expressed in transfected cells. Particulars: for IC50: 1321N1 cells, BzATP EC80, mean ± SD. It counts as cell-based. An excerpt: . For 1321N1 astrocytoma cells stably expressing the human, rat, or mouse P2X7Rs, or hP2X2Rs or hP2X4Rs, the fluorescent Ca^2+-chelating dye Fluo-4 acetoxymethyl ester (Fluo-4 AM, Thermo Fisher Scientific, Dreieich, Germany) was used. For 1321N1 astrocytoma cell lines recombinantly expressing the hP2X1Rs or hP2X3Rs, the FLIPR® Calcium 5 Assay Kit (Molecular Devices, San José, CA, USA) was employed. Human, rat, and mouse P2X7Rs as well as hP2X1Rs, hP2X2Rs, hP2X3Rs, and hP2X4Rs were recombinantly expressed in 1321N1 astrocytoma cells using a retroviral expression system[72]–[74].
On the first day, 45,000 cells per well (30,000 cells for the human P2X3 receptor-expressing cells) were seeded into a 96-well polystyrene microplate with a black, flat bottom in a final volume of 200 µL. After overnight incubation at 37 °C and 10% CO2 (5% CO2 for the human P2X3R-expressing cell line), the medium was removed by inverting the plate, and the cells were loaded with dye solution. Hanks’ balanced salt solution (HBSS, Thermo Fisher Scientific, Dreieich, Germany) was used as the assay buffer for human P2X1R, P2X2R, P2X3R, and P2X4R. For the P2X7Rs, a different assay buffer was used: 150 mM sodium-glutamate, 5 mM KCl, 0.5 mM CaCl2, 0.1 mM MgCl2, 10 mM D-glucose, 25 mM 4-(2-hydroxyethyl)-1-piperazineethanesulfonic acid (HEPES), pH 7.4. The dye solutions were freshly prepared. The Fluo-4 AM solution contained 3 µM of Fluo-4 AM in assay buffer and 1% of the non-ionic detergent Pluronic F-127® (Sigma-Aldrich, Taufkirchen, Germany). The Calcium 5 dye, used for hP2X1Rs and hP2X3Rs, was prepared in HBSS buffer. Cells were loaded with Fluo-4 AM and incubated for 1 h at room temperature with gentle shaking (100 rpm), while those loaded with the Calcium 5 dye were incubated for 1 h at 37 °C. After incubation, the dye solution was carefully removed from the plate, and buffer was added to the cells for the evaluation of agonists. […] The agonist solution was prepared in a 96-well transparent plate, obtaining the respective EC80 values. As a control, assay buffer without the test compound was used. After 30 min of incubation with antagonist, the plates were measured using a fluorescence imaging plate reader NOVOstar (BMG Labtech GmbH, Offenburg, Germany) at an excitation wavelength of 485 nm and an emission wavelength of 520 nm, for 30 s at 0.4 s intervals. Calcium influx measurements were then initiated by automatic addition of 20 µL of agonist solution by the plate reader’s pipetting device. Data were analyzed using Microsoft Excel and GraphPad Prism (Version 8.0, San Diego, CA, USA). EC80 and IC50 values were calculated using nonlinear regression with a sigmoidal dose-response equation.

Structures are written as SMILES. Several values for one entry are separate records, joined by “and”; a condition that tells them apart may be missing. Equal entries are not always repeated.

What is called IC50 is the concentration at which inhibition is half-maximal. Turning to `O=C(NNc1ccccc1Cl)C12CC3CC(CC(C3)C1)C2` [UB-ALT-P30, reference compound], the IC50 came out at 116 ± 50 nM. Further, under “1321-N1, Log(c) M -7.52288, read-out: normalized calcium signal, rP2X7R IC50 curve”, the activity at 0.03 µM is 94.8%. Also, the activity at 0.01 µM (1321-N1, Log(c) M -8, read-out: normalized calcium signal, rP2X7R IC50 curve) was 98.3%. Further, the “normalized calcium signal, rP2X7R IC50 curve” value (“normalized calcium signal” below) (Log(c) M -7.52288, 0.03 µM) is 96.1595 and 98.0559 and 102.654 and 103.189. The “normalized calcium signal” value (Log(c) M -8, 0.01 µM) is 98.7308 and 105.449 and 107.576 and 114.231 and 110.835. For the same molecule, under “Log(c) M -8.52288, 0.003 µM”, the “normalized calcium signal” value is 87.0316 and 95.5173 and 98.7016 and 89.3009 and 111.685 and 110.916 and 108.743.

Consider `CC12CC3CC1(C)C1(C)CC3(C(=O)NNc3ccccc3Cl)CC21C` [UB-MBX-46], for which the IC50 stood at 40.6 ± 10.4 nM. Also, where the note is “1321-N1, Log(c) M -8.52288, read-out: normalized calcium signal, rP2X7R IC50 curve”, the activity at 0.003 µM turned out to be 92.9%. Moreover, where the note is “1321-N1, Log(c) M -9, read-out: normalized calcium signal, rP2X7R IC50 curve”, the activity at 0.001 µM worked out at 83%. The activity at 0.0003 µM (1321-N1, Log(c) M -9.52288, read-out: normalized calcium signal, rP2X7R IC50 curve) amounted to 92.1%. Moreover, under “Log(c) M -8, 0.01 µM”, the “normalized calcium signal” value is 92.0673 and 92.0463 and 93.4263 and 100.969 and 74.9729 and 70.4733. For the same molecule, the “normalized calcium signal” value (Log(c) M -8.52288, 0.003 µM) is 98.336 and 95.4706 and 107.675 and 91.9395. Further, the “normalized calcium signal” value (Log(c) M -9, 0.001 µM) is 97.4351. Moreover, where the note is “calcium influx”, the “times more potent than UB-ALT-P30 on the rP2X7R” value was ~ 3 x.
